A word on the EC50: it is the concentration needed to bring the measured effect to its halfway point. For orientation: EC90 means the point of the concentration-response curve where the effect stands at 90%.

The structures appear in SMILES notation. Read-outs that look alike come from different tables or passages of the source.

In test [1] the test system is basic region Tat mutant (Tat-1 BRM). In words: Biotinylated compound pull-down of basic region Tat mutant. Format: binding, HIV-1. How it is done:
(§1) HEK293T cells were transfected with flag-tagged Tat 101 a.a. (Tat-F-101-wt), a shorter Tat version with 86 a.a. (Tat-F-86-wt), Tat 86 a.a. mutated in the basic domain (Tat-F-BRM), flag-tagged CDK11 (CDK11-F), flag-tagged 9G8 (9G8-F) and empty vector control.
(§2) DYNABEADS® MYONE™ Streptavidin T1 (12.5 μl slurry) (Invitrogen) were pre-saturated with 1.88 μl of 1 mM in DMSO of Biotin alone or Bio-dCA and incubated for 1 h at room temperature with orbital rocking, plus an additional 30 min with Biotin (0.63 μl of 1 mM in DMSO). Protein extracts (250 μg per sample) were incubated with the pre-saturated beads in lysis buffer supplemented with 0.1% BSA for 1 h at 4° C. with orbital rocking. After incubation, the beads were washed three times with lysis buffer.

In a further test the test system is Tat. In words: Biotinylated compound streptavidin-bead pull-down of Tat. The format is binding, HIV-1. As to conditions: flag-tagged Tat expressed in cells or recombinant Tat. The protocol:
as §1
Recombinant Tat protein was incubated with Bio-dCA streptavidin-coated beads in the presence or absence of an excess of non-biotinylated dCA (represented as molar equivalent [eq.] of Bio-dCA). Raltegravir and recombinant GST-9G8 were used as a negative control competitor or as negative protein-binding control, respectively.
as §2
For the pull-down of recombinant Tat (#2222 of NIH) and GST-9G8, streptavidin-agarose beads (40 μl slurry) were pre-saturated with 1.5 μl of 1 mM in DMSO, Biotin alone, or Bio-dCA and incubated for 1 h at room temperature. […] After incubation, the beads were washed three times with PBS and proteins were eluted as before.

For another test, the system named is HIV-1 pNL4-3. In words: Chronically HIV-1 infected HeLa-CD4 cells, viral RNA by qRT-PCR / p24. Format: cell-based. How it is done:
FIG. 1G: p24 antigen quantification. Viral supernatants recovered from cells described in FIG. 1B, grown for 60 days, were assayed for their p24 antigen content using a sandwich ELISA kit. Error bars represent standard deviations.
First-strand cDNA from RNA for qPCR was prepared using […]™ first-strand cDNA kit (Invitrogen), following the manufacturer's instructions, using approximately 5 μg of RNA as starting material and random hexamers as first-strand primers. Quantitative PCR was performed with an aliquot of cDNA as template, using […]® 480 SYBR Green I Master (Roche) in a 20 μL reaction according to the manufacturer's instructions. […] The primers used were as follows: […]
Such an early time point rules out de novo infections. […] This conclusion was further supported by the fact that treatment of cells that were chronically infected, and therefore continuously shedding the virus (without incurring new infections, due to down-regulation of CD4 from the cell surface), reduced virus production to undetectable levels (FIG. 1F). […] Results were similar when viral release from cells treated for 60 days were measured by p24 enzyme-linked immunosorbent assay (ELISA) (FIG. 1G).
Background: Real-time PCR tracks product formation cycle by cycle.

The subject of test [2] is CXCR4, TK, PGK or CD4 promoters. In words: Transcription from cellular/control promoters. The format is cell-based. The protocol: FIG. 8C: Luciferase assays of TE671 cells transfected with the indicated promoter or promoter portion driving Luciferase expression. Main consensus bonding sites for transcription factors are indicated. 24 h post transfection cells were split and treated or not with CA. Forty hours later cells were lysed and luciferase activity measured as in FIG. 8A.
FIG. 8D: CEM SS and HeLa-CD4 cells stained for CD4, CXCR4 or isotype control expression followed by flow cytometry analysis.
Similar results were obtained when a Tat-encoding plasmid was transfected into HeLa-CD4 expressing LTR-Luc (FIG. 2B). […] Reporter transcription from heat-inactivated recombinant Tat protein (FIG. 2A), which was used as negative control, reflects Tat-independent activation of the HIV promoter, and accounts for approximately 20% of maximal activation.

Consider `CN(C)[C@H]1C[C@@]23CC[C@@]4(O2)C(=CC[C@]2(C)C(c5ccc6ccncc6c5)=CC[C@H]24)C=C3[C@@H](O)[C@@H]1O` [dCA, didehydro-Cortistatin A], for which, in test [1], the “interaction with TAR-nonbinding basic region Tat mutant (pull-down)” value is listed as “not”. Besides, the “interaction with Tat (pull-down)” value with Tat is recorded as “interacted directly”. Also, in the test with HIV-1 pNL4-3 (chronically infected cells grown in 100 nM for longer periods), the “inhibition of viral replication” value came out at 99%. Also, the EC50 is less than 100 pM with HIV-1 pNL4-3 (read-out: EC50 for abrogating chronic HIV infection) and no less than 100 pM with HIV-1 pNL4-3 (treatment for 10 or 60 days, read-out: EC50, reduction of viral cellular RNA levels). In addition, the EC90 in the test on HIV-1 pNL4-3 (treatment for 10 or 60 days, read-out: EC90, reduction of viral cellular RNA levels) is less than 10000 pM. Moreover, in test [2], the “transcription from CXCR4, TK, PGK or CD4 promoters” value was “not affected”.

These data come from US9682994B2, “Inhibitors of retroviral replication” (The Scripps Research Institute, priority 2011, dated 2017).
